Experiments:
[1] = tested on: differentiated P19 neurons; experiment: Differentiated P19 excitotoxicity assay: neuroprotection by known kinase inhibitors against glutamate/glycine (Alamar Blue, CFDA); assay type: cell-based, murine; settings: for Maximal Efficacy for Neuroprotection / IC50: 3 mM glutamate, 1 mM glycine; for IC50: mean of three separate curves, read-out: IC50 for Neuroprotection [lower-upper 95% C.I.]
Experimental: Data points are the average±standard error of three separate experiments.
These cells were used to measure the effects of various known kinase inhibitors (Compound Identification (ID) column in Table I) upon cytotoxicity-induced by NMDA. First, P19 cells were differentiated as described in Example 2. Then cells were exposed to 3 mM of glutamate in the presence of 1 mM glycine.
Cell viability was determined. Compounds that prevented excitotoxicity were determined by measuring the percentage of viable cells compared to differentiated P19 cells that were not presented with a toxic insult (Table I).
Cell viability was measured using two methods. The first method was a confocal, single-cell fluorescence imaging-based method using the live cell dye carboxy-fluorescein diacetate (CFDA). CFDA labels the cell bodies and processes of living cells. […] CFDA fluorescence was measured using a modified Attofluor Imager device (Atto Instruments, Rockville Pike, Md.). Cells were labeled with 1 uM CFDA for 15 min in media, then placed onto the stage of the Attofluor microscope. The dye was excited by light from a mercury lamp source passed through a 488 nm bandpass filter of 10 nm band width, passed through a CARV real-time confocal spinning disk module (Atto Instruments, Rockville, Md.), and then passed through a 40×oil immersion objective (Zeiss Fluar, NA=1.3). Emitted light was transmitted through a 495 nm dichroic mirror, collected to an Attofluor intensified CCD camera, and images were visualized using Attofluor Ratio Vision software (Atto Instruments, Rockville, Md.).
The second method for measuring cell viability was a plate reader method. Cells plated into black 96 well plates (Packard viewplates) were loaded with 5% Alamar Blue dye (Biosource International). Alamar Blue is a dye that takes advantage of mitochondrial reductases to convert non-fluorescent resazurin to fluorescent resorufin (excitation 535 nm, emission 580 nm). Baseline fluorescence counts were read at room temperature in a Wallac plate reader immediately after addition of Alamar blue. Fluorescence counts of cell viability were taken the same way after 1 hour incubation at 37° C. Fluorescence was expressed as a percent of control, untreated cells after subtraction of background fluorescence. Live/dead cells were confirmed visually with a light microscope.
Kinase inhibition activities and potencies were derived from the literature (Chijiwa et al. 1990; Favata et al. 1998; Henry et al. 1998; Inhorn and Majerus 1987; Kobayashi et al. 1989; Lee et al. 1994; Onoda et al. 1989; Tokumitsu et al. 1990). […] Curves were fit, and confidence intervals were determined using GraphPad Prism software.

[2] = tested on: NMDA receptor-mediated intracellular calcium response; experiment: Fura-2 imaging of glutamate/glycine-induced intracellular calcium response in P19 neurons; assay type: cell-based, murine; settings: 100 μM MK-801, 24 hours prior to assay; 3 mM glutamate, 1 mM glycine
Experimental: MK-801 was administered 24 hours prior to assay. […] MK-801 concentrations are expressed as 10^−x Molar. […] (FIG. 1B).
U0126 was administered concurrently with glutamate and glycine.

Male Wistar rats = experiment: Transient model of cerebral ischemia in rats (lesion volume); assay type: in vivo, rat; settings: 3 mg/kg, i.p., 1 hr post ischemia onset; 24 h; average of 12
Experimental: Male Wistar rats (Iffa Crédo, France), weighing 250-300 g, were housed 2 per cage under a light-dark cycle of 12 hr-12 hr (light on at 7:00 a.m., off at 7:00 p.m.) at a room temperature of 21±2° C., with 50±15% humidity, for a minimum of 5 days before the experiments. During this time, the rats had free access to commercial rat chow (Trouw Nutrition France, Vigny, France, ref. 811002) and tap water.
The animals were anaesthetized with 5% halothane in air for induction, then 1-2% halothane during surgery. The rat's body temperature was maintained at 37° C. with a heating pad. A 2 cm incision was made at the center of the neck and the right common carotid artery (CCA), external carotid artery (ECA) and internal carotid artery (ICA) were exposed under an operating microscope. The ICA was further dissected to identify the pterygopalatine artery (PA) branch and the intracranial ICA branch. The CCA was ligated. A 3-0 silk suture was tied at the origin of the ECA and ligated. A catheter (id=0.58 mm) was introduced into the CCA through a small puncture and advanced to the intracranial branch of the ICA. A 4-0 surgical nylon suture was introduced into the catheter. A length of approximately 19 mm of nylon suture was gently advanced from the CCA into the lumen of the ICA until the suture blocked the origin of the MCA. The suture was sealed into the catheter by heat, leaving 1 cm of catheter protruding so the suture could be withdrawn to allow reperfusion. The incision was closed using skin clips. Anaesthesia was then terminated and the animals were placed under heat lamps until recovery from anaesthesia. The rats awakened 10-15 min later. After 2 hr of ischemia, reperfusion was performed by withdrawal of the suture until the tip cleared the ICA lumen. Vehicle or test compound was administered intraperitoneally (i.p.) or intravenously (i.v.) at 1 hr post ischemia onset.
24 h after the onset of occlusion, the rats were killed by decapitation. The brains were immediately removed, frozen in isopentane and stored at −20° C. The brains were then cut in 20 μm thick sections in a cryocut. Every 20th slice was used to measure infarct area. The sections were stained with cresyl violet and the areas of infarct in the striatum and cortex were determined by planimetry using an image analysis software (Image, NIH) after digitalization of the section images.
Following the procedure described above, MK-801, compound #46 and compound #264 (as listed in the Tables herein) were evaluated for neuroprotective effects in rats with results as listed in Table VIII. The data represent average lesion volume in mm^3 for 12 measurements. Vehicle used was 15% solutol in 5% dextrose.

NMDA receptor = NMDA receptor (Mus musculus, UniProt P35436+P35438+Q01097); settings: P19 membranes, concentration-dependent
Experimental: MK-801 inhibition of [^3H]-MK-801 binding was assayed in P19 membranes. MK-801 concentrations are expressed as 10^−x Molar. Data points represent the mean±standard error from eight experiments. % control=((CPM−CPMbottom)/(CPMtop−CPMbottom))×100.

p60^c-src = p60^c-src (Homo sapiens, UniProt P12931); settings: read-out: Potency, IC50, p60^c-src; cited from earlier work
EGF receptor = EGF receptor (Homo sapiens, UniProt P00533); settings: read-out: Potency, IC50, EGF receptor; cited from earlier work
PKC = settings: read-out: Potency, IC50, PKC; cited from earlier work
PKA = PKA (Homo sapiens, UniProt P17612); settings: read-out: Potency, IC50, PKA; cited from earlier work
PKG = target: T1, PKG (Homo sapiens, UniProt Q13976); settings: read-out: Potency, IC50, PKG; cited from earlier work
T1 sequence (Q13976 1-671): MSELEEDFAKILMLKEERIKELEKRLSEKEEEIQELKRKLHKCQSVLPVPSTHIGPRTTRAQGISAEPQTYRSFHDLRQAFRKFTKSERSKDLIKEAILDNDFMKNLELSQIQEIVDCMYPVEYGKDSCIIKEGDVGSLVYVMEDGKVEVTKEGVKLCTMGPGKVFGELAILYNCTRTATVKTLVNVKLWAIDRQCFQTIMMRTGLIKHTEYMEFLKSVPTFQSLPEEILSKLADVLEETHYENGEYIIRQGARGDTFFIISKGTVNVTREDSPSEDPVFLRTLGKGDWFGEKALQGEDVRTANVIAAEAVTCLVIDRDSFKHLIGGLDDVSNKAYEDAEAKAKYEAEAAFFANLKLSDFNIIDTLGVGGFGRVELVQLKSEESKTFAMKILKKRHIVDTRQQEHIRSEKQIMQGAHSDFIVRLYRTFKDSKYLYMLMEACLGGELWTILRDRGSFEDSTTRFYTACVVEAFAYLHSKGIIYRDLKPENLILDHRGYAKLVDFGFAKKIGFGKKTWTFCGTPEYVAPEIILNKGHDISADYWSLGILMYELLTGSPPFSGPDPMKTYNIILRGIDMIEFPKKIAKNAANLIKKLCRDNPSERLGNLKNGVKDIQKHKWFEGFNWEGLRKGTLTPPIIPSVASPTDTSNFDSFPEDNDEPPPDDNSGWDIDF

P19 neurons = experiment: Post-treatment time course of neuroprotection in P19 neurons (delayed neuroprotection); assay type: cell-based, murine; settings: compound added after glutamate challenge
Text: Time-course of efficacy is an extremely relevant parameter for a potential neuroprotective therapeutic agent, since the therapeutic would need to be administered hours to days after an ischemic event and still retain efficacy.

p60^c-src, sequence (P12931 whole entry): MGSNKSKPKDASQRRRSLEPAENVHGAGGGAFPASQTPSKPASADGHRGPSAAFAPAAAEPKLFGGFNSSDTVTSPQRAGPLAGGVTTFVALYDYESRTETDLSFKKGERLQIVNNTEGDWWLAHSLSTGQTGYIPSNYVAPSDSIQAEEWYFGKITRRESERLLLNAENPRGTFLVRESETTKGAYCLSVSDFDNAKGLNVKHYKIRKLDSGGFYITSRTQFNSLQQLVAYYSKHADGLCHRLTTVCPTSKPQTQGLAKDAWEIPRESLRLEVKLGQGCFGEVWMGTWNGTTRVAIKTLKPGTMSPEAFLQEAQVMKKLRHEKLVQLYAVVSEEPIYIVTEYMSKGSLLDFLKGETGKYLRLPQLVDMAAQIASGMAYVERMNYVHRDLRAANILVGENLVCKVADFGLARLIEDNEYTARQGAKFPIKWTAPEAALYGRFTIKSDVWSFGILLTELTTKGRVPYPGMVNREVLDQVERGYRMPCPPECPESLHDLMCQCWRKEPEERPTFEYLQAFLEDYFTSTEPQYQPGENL
NMDA receptor, sequence (P35436 23-1464, other chains not shown): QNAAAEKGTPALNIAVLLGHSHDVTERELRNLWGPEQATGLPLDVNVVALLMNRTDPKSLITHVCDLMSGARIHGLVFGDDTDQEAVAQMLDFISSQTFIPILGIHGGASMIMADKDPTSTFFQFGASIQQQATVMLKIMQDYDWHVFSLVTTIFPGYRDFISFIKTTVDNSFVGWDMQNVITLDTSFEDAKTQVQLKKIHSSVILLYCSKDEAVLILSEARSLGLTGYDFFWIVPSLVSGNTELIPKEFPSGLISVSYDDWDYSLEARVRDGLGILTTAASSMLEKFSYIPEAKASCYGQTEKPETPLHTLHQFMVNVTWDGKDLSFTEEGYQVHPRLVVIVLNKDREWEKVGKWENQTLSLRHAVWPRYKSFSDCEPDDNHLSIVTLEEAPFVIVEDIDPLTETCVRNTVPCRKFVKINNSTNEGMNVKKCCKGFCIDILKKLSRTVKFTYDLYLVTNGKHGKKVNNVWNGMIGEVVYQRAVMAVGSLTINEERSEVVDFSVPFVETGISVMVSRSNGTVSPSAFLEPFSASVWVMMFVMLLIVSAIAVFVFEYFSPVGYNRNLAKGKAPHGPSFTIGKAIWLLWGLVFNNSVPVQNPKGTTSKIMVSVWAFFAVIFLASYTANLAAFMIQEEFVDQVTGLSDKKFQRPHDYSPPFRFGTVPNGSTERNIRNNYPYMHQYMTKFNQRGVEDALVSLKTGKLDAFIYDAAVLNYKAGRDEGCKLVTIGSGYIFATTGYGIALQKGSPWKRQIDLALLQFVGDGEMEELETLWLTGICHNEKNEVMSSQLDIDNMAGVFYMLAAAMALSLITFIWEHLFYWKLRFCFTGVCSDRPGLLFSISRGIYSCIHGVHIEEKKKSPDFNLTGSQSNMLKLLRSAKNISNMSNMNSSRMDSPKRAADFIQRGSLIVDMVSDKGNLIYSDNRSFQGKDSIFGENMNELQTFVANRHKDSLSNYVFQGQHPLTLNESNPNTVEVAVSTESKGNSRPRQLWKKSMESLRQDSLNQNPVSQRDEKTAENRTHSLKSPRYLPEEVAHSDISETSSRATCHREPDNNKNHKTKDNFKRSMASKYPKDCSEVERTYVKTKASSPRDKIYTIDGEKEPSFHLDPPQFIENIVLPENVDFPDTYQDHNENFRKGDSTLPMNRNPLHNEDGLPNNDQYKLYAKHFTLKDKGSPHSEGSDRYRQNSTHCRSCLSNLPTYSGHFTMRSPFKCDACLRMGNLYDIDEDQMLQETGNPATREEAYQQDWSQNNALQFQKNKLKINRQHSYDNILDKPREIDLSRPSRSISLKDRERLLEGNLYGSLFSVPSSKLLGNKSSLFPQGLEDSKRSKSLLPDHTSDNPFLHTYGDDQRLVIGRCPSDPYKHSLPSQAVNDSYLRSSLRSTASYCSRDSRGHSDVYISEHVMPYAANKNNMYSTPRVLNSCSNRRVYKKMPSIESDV
NMDA receptor, sequence (Q01097 27-1482, other chains not shown): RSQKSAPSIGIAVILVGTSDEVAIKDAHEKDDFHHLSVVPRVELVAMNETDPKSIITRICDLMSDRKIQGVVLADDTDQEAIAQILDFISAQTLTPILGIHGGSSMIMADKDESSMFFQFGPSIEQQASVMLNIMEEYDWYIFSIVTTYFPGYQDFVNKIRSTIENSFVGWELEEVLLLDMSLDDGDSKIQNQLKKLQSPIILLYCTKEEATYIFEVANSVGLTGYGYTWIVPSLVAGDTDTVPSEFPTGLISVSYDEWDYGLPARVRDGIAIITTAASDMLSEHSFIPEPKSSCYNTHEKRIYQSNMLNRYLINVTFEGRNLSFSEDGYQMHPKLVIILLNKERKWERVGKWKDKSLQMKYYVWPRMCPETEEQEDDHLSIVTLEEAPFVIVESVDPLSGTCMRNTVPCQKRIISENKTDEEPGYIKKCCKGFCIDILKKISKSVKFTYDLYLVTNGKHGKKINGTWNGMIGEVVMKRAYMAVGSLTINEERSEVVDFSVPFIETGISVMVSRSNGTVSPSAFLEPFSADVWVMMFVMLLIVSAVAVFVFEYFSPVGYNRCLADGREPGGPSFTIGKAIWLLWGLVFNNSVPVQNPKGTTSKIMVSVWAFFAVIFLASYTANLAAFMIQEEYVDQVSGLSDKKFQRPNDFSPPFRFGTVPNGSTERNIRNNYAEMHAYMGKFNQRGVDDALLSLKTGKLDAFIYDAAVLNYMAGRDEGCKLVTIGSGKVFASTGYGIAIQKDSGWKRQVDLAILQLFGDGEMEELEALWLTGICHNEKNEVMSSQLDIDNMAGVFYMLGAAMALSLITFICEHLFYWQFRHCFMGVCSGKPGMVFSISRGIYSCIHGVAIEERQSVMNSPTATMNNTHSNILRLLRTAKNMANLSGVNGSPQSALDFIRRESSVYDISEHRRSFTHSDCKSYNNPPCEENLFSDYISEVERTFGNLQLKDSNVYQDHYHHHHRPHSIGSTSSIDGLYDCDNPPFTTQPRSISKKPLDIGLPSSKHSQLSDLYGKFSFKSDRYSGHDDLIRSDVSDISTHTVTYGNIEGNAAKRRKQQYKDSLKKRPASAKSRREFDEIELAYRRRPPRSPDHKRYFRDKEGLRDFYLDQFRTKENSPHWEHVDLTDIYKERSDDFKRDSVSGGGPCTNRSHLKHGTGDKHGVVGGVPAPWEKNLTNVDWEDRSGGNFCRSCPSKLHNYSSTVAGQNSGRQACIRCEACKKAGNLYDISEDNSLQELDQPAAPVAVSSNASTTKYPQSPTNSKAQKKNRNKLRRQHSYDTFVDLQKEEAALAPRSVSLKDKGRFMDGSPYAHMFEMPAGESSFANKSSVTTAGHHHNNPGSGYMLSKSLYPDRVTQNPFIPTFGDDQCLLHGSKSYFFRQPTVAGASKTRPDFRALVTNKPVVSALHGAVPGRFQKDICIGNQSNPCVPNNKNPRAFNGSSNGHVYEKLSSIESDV
EGF receptor, sequence (P00533 25-1210): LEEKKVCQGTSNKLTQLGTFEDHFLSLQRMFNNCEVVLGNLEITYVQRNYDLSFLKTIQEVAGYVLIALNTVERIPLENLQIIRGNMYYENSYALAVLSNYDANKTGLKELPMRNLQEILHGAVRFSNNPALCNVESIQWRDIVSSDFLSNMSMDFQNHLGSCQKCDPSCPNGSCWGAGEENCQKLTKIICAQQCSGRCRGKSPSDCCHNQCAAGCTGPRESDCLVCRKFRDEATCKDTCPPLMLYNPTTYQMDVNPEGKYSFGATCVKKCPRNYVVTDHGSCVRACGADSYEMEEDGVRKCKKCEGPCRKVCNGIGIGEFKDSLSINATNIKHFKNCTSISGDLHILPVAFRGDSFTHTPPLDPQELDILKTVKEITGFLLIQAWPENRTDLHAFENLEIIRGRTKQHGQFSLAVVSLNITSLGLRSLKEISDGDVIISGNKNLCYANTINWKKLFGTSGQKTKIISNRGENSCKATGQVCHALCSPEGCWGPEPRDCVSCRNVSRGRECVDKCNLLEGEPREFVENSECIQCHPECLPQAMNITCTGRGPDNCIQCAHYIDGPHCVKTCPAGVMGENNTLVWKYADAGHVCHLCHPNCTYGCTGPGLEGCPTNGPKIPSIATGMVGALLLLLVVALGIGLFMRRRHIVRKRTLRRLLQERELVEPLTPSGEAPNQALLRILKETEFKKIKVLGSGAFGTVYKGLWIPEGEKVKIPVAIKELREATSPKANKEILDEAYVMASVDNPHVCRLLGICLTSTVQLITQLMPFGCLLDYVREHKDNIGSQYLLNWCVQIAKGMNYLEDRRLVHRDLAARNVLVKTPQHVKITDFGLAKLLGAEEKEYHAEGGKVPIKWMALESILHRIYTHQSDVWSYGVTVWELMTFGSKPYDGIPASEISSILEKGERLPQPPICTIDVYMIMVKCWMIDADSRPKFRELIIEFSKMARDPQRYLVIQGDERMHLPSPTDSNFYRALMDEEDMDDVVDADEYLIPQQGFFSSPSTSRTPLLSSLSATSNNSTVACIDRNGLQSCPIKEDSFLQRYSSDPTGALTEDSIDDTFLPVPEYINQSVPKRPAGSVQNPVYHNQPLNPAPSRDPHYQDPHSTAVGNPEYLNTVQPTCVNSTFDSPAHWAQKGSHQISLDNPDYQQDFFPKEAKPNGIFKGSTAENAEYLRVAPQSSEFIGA

C[C@]12N[C@H](Cc3ccccc31)c1ccccc12 [MK-801, reference compound]
Maximal protection against glutamate toxicity ([1]; 3 mM glutamate and 1 mM glycine): close to control levels | effect on intracellular calcium response to NMDA receptor agonists [2]: significantly inhibited this response | Cortex + Striatum Vol. (mm^3) (Male Wistar rats): 205.4 ± 28.0 mm^3 | Cortex Vol. (mm^3) (Male Wistar rats): 135.0 ± 26.1 mm^3 | Striatum Vol. (mm^3) (Male Wistar rats): 70.4 ± 2.9 mm^3 | inhibition of [3H]-MK-801 binding achieved (NMDA receptor): 100%

O=C(O)c1cc(N(Cc2ccccc2O)Cc2cc(O)ccc2O)ccc1O [Lavendustin A]
Maximal Efficacy for Neuroprotection [1]: <25% | IC50 [1]: > 10 µM | IC50 (p60^c-src): ~0.5 µM | IC50 (EGF receptor): ~0.011 µM

COc1c(C[C@@H](C)OC(=O)Oc2ccc(O)cc2)c2c3c(C[C@@H](C)OC(=O)c4ccccc4)c(OC)c(=O)c4c(O)cc(OC)c(c5c(OC)cc(O)c(c1=O)c52)c43 [Calphostin C]
Maximal Efficacy for Neuroprotection [1]: ˜50% | IC50 [1]: > 1 µM | IC50 (PKC): ~0.05 µM | IC50 (PKA): > 50 µM | IC50 (PKG): > 25 µM | IC50 (p60^c-src): > 50 µM

COc1cc(N)nc2[nH]c(-c3ccc(F)cc3)c(-c3ccncc3)c12 [Compound A]
time after glutamate challenge at which efficacy was lost (P19 neurons): 15 min
